Assay results from PubChem BioAssay AID1918947 (Molecular Pharmacology Branch, DTP, NCI, 2023).

System: A498 complex spheroid viability
Assay: Anticancer human tumor A498 cell line growth inhibition;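 note: spheroids exposed to agents for seven days before readout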;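 for viability, T/C: 100% = DMSO vehicle-treated spheroids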
Conditions: for IC50: curve of first compound; for viability, T/C: stronger effect = lower value
Method in brief: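 Multicellular complex spheroids of tumor cells with human endothelial cells (HUVEC) and mesenchymal stem cells; the LSD1 inhibitor iadademstat was combined with standard-of-care or investigational agents. Top concentration at or near clinical Cmax, half-log dilutions; final DMSO ≤0.25%.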

[1] = second compound 0.1 µM, first compound 0.0316 µM
[2] = second compound 0.1 µM, first compound 0.1 µM
[3] = second compound 0.1 µM, first compound 0.316 µM
[4] = second compound 0.1 µM, first compound 1 µM
[5] = second compound 0.1 µM, first compound 3.16 µM
[6] = second compound 0.1 µM, first compound 10 µM
[7] = second compound 0.316 µM, first compound 0.0316 µM
[8] = second compound 0.316 µM, first compound 0.1 µM
[9] = second compound 0.316 µM, first compound 0.316 µM
[10] = second compound 0.316 µM, first compound 1 µM
[11] = second compound 0.316 µM, first compound 3.16 µM
[12] = second compound 0.316 µM, first compound 10 µM
[13] = second compound 1 µM, first compound 0.0316 µM
[14] = second compound 1 µM, first compound 0.1 µM
[15] = second compound 1 µM, first compound 0.316 µM
[16] = second compound 1 µM, first compound 1 µM
[17] = second compound 1 µM, first compound 3.16 µM
[18] = second compound 1 µM, first compound 10 µM
[19] = second compound 3.16 µM, first compound 0.0316 µM
[20] = second compound 3.16 µM, first compound 0.1 µM
[21] = second compound 3.16 µM, first compound 0.316 µM
[22] = second compound 3.16 µM, first compound 1 µM
[23] = second compound 3.16 µM, first compound 3.16 µM
[24] = second compound 3.16 µM, first compound 10 µM
[25] = second compound 10 µM, first compound 0.0316 µM
[26] = second compound 10 µM, first compound 0.1 µM
[27] = second compound 10 µM, first compound 0.316 µM
[28] = second compound 10 µM, first compound 1 µM
[29] = second compound 10 µM, first compound 3.16 µM
[30] = second compound 10 µM, first compound 10 µM

`COc1ccc([C@@H](O)c2cc(-c3ncnc4cc(N5CCOCC5)ccc34)c(F)cc2Cl)nn1` + NC1CCC(NC2CC2c2ccccc2)CC1 showed an IC50 (second compound 0.1 µM) of 113 nM, an IC50 (second compound 0.316 µM) of 154 nM and an IC50 (second compound 1 µM) of 128 nM. It also gave an IC50 (second compound 3.16 µM) of 130 nM, an IC50 (second compound 10 µM) of 126 nM and a viability, T/C [1] of 80.5%. The viability, T/C [2] was 53.5%, the viability, T/C [3] was 28.8% and the viability, T/C [4] was 20.4%. The viability, T/C [5] was 11%, the viability, T/C [6] was 6.4% and the viability, T/C [7] was 79.6%. It also gave a viability, T/C [8] of 58.5%, a viability, T/C [9] of 35.6% and a viability, T/C [10] of 23.3%. The viability, T/C [11] was 12%, the viability, T/C [12] was 6.71% and the viability, T/C [13] was 70.6%. The viability, T/C [14] was 55.2%, the viability, T/C [15] was 32.8% and the viability, T/C [16] was 19.6%. The viability, T/C [17] was 10.3%, the viability, T/C [18] was 6.44% and the viability, T/C [19] was 69.3%. The viability, T/C [20] was 54.4%, the viability, T/C [21] was 35.4% and the viability, T/C [22] was 21%. The viability, T/C [23] was 9.68%, the viability, T/C [24] was 5.91% and the viability, T/C [25] was 66.8%. It also gave a viability, T/C [26] of 54.1%, a viability, T/C [27] of 35.2% and a viability, T/C [28] of 23.5%. The viability, T/C [29] was 10.1% and the viability, T/C [30] was 5.83%.
In the case of `CC1COCCN1c1cc(C2(S(C)(=N)=O)CC2)nc(-c2ccnc3[nH]ccc23)n1` (stereo not given) + NC1CC1c1ccc(-c2cccc(O)c2)cc1, the IC50 (second compound 0.1 µM) is reported as 409 nM, the IC50 (second compound 0.316 µM) is reported as 509 nM and the IC50 (second compound 1 µM) is reported as 552 nM. It also gave an IC50 (second compound 3.16 µM) of 503 nM, an IC50 (second compound 10 µM) of 539 nM and a viability, T/C [1] of 92%. It also gave a viability, T/C [2] of 85.2%, a viability, T/C [3] of 55.2% and a viability, T/C [4] of 28%. It also gave a viability, T/C [5] of 16.1%, a viability, T/C [6] of 11.5% and a viability, T/C [7] of 97.8%. For the same molecule, the viability, T/C [8] was 96.8%, the viability, T/C [9] was 68.4% and the viability, T/C [10] was 23.9%. For the same molecule, the viability, T/C [11] was 16.7%, the viability, T/C [12] was 15.6% and the viability, T/C [13] was 86.7%. The viability, T/C [14] was 94%, the viability, T/C [15] was 69.9% and the viability, T/C [16] was 28%. The viability, T/C [17] was 15.1%, the viability, T/C [18] was 10.6% and the viability, T/C [19] was 85.2%. It also gave a viability, T/C [20] of 87.9%, a viability, T/C [21] of 63.9% and a viability, T/C [22] of 28.1%. It also gave a viability, T/C [23] of 16.8%, a viability, T/C [24] of 11.2% and a viability, T/C [25] of 89.7%. For the same molecule, the viability, T/C [26] was 84.8%, the viability, T/C [27] was 63% and the viability, T/C [28] was 34%. For the same molecule, the viability, T/C [29] was 17.8% and the viability, T/C [30] was 10.1%.
Work on `Nc1ncn(C2CC(O)C(CO)O2)c(=O)n1` (stereo not given) + NC1CC1c1ccc(-c2cccc(O)c2)cc1 yielded an IC50 (second compound 0.1 µM) greater than 1000 nM, an IC50 (second compound 0.316 µM) greater than 1000 nM and an IC50 (second compound 1 µM) greater than 1000 nM. The IC50 (second compound 3.16 µM) was greater than 1000 nM, the IC50 (second compound 10 µM) was greater than 1000 nM and the viability, T/C (second compound 0.1 µM, first compound 0.00316 µM) was 110%. For the same molecule, the viability, T/C (second compound 0.1 µM, first compound 0.01 µM) was 113%, the viability, T/C [1] was 104% and the viability, T/C [2] was 94.5%. The viability, T/C [3] was 92.3%, the viability, T/C [4] was 78.6% and the viability, T/C (second compound 0.316 µM, first compound 0.00316 µM) was 118%. For the same molecule, the viability, T/C (second compound 0.316 µM, first compound 0.01 µM) was 120%, the viability, T/C [7] was 107% and the viability, T/C [8] was 97.1%. For the same molecule, the viability, T/C [9] was 93.1%, the viability, T/C [10] was 68.5% and the viability, T/C (second compound 1 µM, first compound 0.00316 µM) was 113%. It also gave a viability, T/C (second compound 1 µM, first compound 0.01 µM) of 114%, a viability, T/C [13] of 110% and a viability, T/C [14] of 95.7%. For the same molecule, the viability, T/C [15] was 86.1%, the viability, T/C [16] was 67.3% and the viability, T/C (second compound 3.16 µM, first compound 0.00316 µM) was 112%. It also gave a viability, T/C (second compound 3.16 µM, first compound 0.01 µM) of 114%, a viability, T/C [19] of 110% and a viability, T/C [20] of 95.4%. For the same molecule, the viability, T/C [21] was 75.6%, the viability, T/C [22] was 63.2% and the viability, T/C (second compound 10 µM, first compound 0.00316 µM) was 107%. For the same molecule, the viability, T/C (second compound 10 µM, first compound 0.01 µM) was 100%, the viability, T/C [25] was 105% and the viability, T/C [26] was 101%. For the same molecule, the viability, T/C [27] was 80.2% and the viability, T/C [28] was 60.4%.
